From ChEMBL document CHEMBL1128873, “The synthesis and antibacterial activity of 2-carbolinyl-carbapenems: potent anti-MRSA/MRCNS agents” (1995)
Converted amounts (≈) assume the structure as drawn.

Columns and labels:
Format in all cases: functional
Staphylococcus aureus [1] = test: In vitro antibacterial activity against Methicillin-resistant Staphylococcus aureus (MRSA) by agar disc diffusion assay method with respect to imipenem
Proteus [2] = test: In vitro antibacterial against Proteus species. by agar disc diffusion assay method with respect to imipenem
Klebsiella sp. [3] = test: In vitro antibacterial against Klebsiella species. by agar disc diffusion assay method with respect to imipenem
Pseudomonas aeruginosa = test: In vitro antibacterial against Pseudomonas aeruginosa by agar disc diffusion assay method
Enterococcus sp. [4] = test: In vitro antibacterial against Enterococcus species. by agar disc diffusion assay method with respect to imipenem
Serratia [5] = test: In vitro antibacterial against Serratia species. by agar disc diffusion assay method with respect to imipenem
Sus scrofa [6] = species: Sus scrofa; test: DHP-I (porcine) susceptibility with respect to imipenem
Escherichia coli [7] = test: In vitro antibacterial against Escherichia coli by agar disc diffusion assay method with respect to imipenem
Enterobacter sp. [8] = test: In vitro antibacterial against Enterobacter species. by agar disc diffusion assay method with respect to imipenem
Staphylococcus aureus [9] = test: In vitro antibacterial activity against Methicillin-susceptible Staphylococcus aureus (MSSA) by agar disc diffusion assay method with respect to imipenem
Staphylococcus sp. [10] = test: In vitro antibacterial activity against Methicillin-resistant coagulase negative Staphylococci (MRCNS) by agar disc diffusion assay method with respect to imipenem
Staphylococcus aureus [11] = test: In vitro antibacterial activity against Methicillin-resistant Staphylococcus aureus (MRSA) by broth microtube dilution method; value ranges from 1-16
Staphylococcus sp. [12] = test: In vitro antibacterial activity against Methicillin-resistant coagulase negative Staphylococci (MRCNS) by broth microtube dilution method; value ranges from 4-32
Staphylococcus aureus [13] = test: In vitro antibacterial activity against Methicillin-resistant Staphylococcus aureus (MRSA) by broth microtube dilution method; value ranges from 0.5-8
Staphylococcus sp. [14] = test: In vitro antibacterial activity against Methicillin-resistant coagulase negative Staphylococci (MRCNS) by broth microtube dilution method; value ranges from 2-16
Staphylococcus sp. [15] = test: In vitro antibacterial activity against Methicillin-resistant coagulase negative Staphylococci (MRCNS) by broth microtube dilution method; value ranges from 1-4
Staphylococcus aureus [16] = test: In vitro antibacterial activity against Methicillin-resistant Staphylococcus aureus (MRSA) by broth microtube dilution method; value ranges from 1-8
Staphylococcus sp. [17] = test: In vitro antibacterial activity against Methicillin-resistant coagulase negative Staphylococci (MRCNS) by broth microtube dilution method; value ranges from 4-8
Staphylococcus aureus [18] = test: In vitro antibacterial activity against Methicillin-resistant Staphylococcus aureus (MRSA) by broth microtube dilution method
Serratia [19] = test: In vitro antibacterial against Serratia species. by agar disc diffusion assay method
Staphylococcus aureus [20] = test: In vitro antibacterial activity against Methicillin-susceptible Staphylococcus aureus (MSSA) by agar disc diffusion assay method
Staphylococcus sp. [21] = test: In vitro antibacterial activity against Methicillin-resistant coagulase negative Staphylococci (MRCNS) by broth microtube dilution method; value ranges from 128 to >128
Enterococcus sp. [22] = test: In vitro antibacterial against Enterococcus species. by agar disc diffusion assay method
Proteus [23] = test: In vitro antibacterial against Proteus species. by agar disc diffusion assay method
Escherichia coli [24] = test: In vitro antibacterial against Escherichia coli by agar disc diffusion assay method
Enterobacter sp. [25] = test: In vitro antibacterial against Enterobacter species. by agar disc diffusion assay method
Klebsiella sp. [26] = test: In vitro antibacterial against Klebsiella species. by agar disc diffusion assay method
Staphylococcus aureus [27] = test: In vitro antibacterial activity against Methicillin-resistant Staphylococcus aureus (MRSA) by broth microtube dilution method; value ranges from 128 to >128
Sus scrofa [28] = species: Sus scrofa; test: DHP-I(porcine) susceptibility was determined
Staphylococcus aureus [29] = test: In vitro antibacterial activity against Methicillin-resistant Staphylococcus aureus (MRSA) by broth microtube dilution method; value ranges from 0.5-4

SMILES | Relative potency (Staphylococcus aureus [1]) [fold] | Relative potency (Proteus [2]) [fold] | Relative potency (Klebsiella sp. [3]) [fold] | Relative potency (Pseudomonas aeruginosa) [fold] | Relative potency (Enterococcus sp. [4]) [fold] | Relative potency (Serratia [5]) [fold] | Relative susceptibility (Sus scrofa [6]) | Relative potency (Escherichia coli [7]) [fold] | Relative potency (Enterobacter sp. [8]) [fold] | Relative potency (Staphylococcus aureus [9]) [fold] | Relative potency (Staphylococcus sp. [10]) [fold] | also measured
C[C@@H](O)[C@H]1C(=O)N2C(C(=O)[O-])=C(c3ccc4c(c3)c3ncccc3n4C)C[C@H]12.[Na+] | 5.3 | 6.6 | 0.16 | 0.006 | 1.2 | 0.37 | 1.8 | 0.31 | 0.065 | 0.2 | 4.5 | 
C[C@@H](O)[C@H]1C(=O)N2C(C(=O)[O-])=C(c3ccc4c(c3)c3cccnc3n4C)C[C@H]12.[Na+] | 8 | 1.4 | 0.059 | 0.007 | 2.1 | 0.1 | 0.06 | 0.12 | 0.034 | 0.17 | 8.6 | MIC50 (Staphylococcus aureus [11]): 4 µg/mL; MIC90 (Staphylococcus aureus [11]): 8 µg/mL; MIC50 (Staphylococcus sp. [12]): 8 µg/mL; MIC90 (Staphylococcus sp. [12]): 16 µg/mL
CC[n+]1cccc2c3cc(C4=C(C(=O)[O-])N5C(=O)[C@H]([C@@H](C)[O-])[C@H]5C4)ccc3n(C)c21.[Na+] | 21 | 11 | 1.4 | 0.035 | 3.7 | 3.2 | 0.01 | 2.8 | 1.4 | 0.43 | 277 | 
C[C@@H](O)[C@H]1C(=O)N2C(C(=O)[O-])=C(c3ccc4c(c3)c3cnccc3n4C)C[C@H]12.[Na+] | 11 | 20 | 0.94 | 0.018 | 4 | 4.8 | 0 | 1.8 | 0.98 | 0.56 | 40 | MIC50 (Staphylococcus aureus [13]): 4 µg/mL; MIC90 (Staphylococcus aureus [13]): 8 µg/mL; MIC50 (Staphylococcus sp. [14]): 8 µg/mL; MIC90 (Staphylococcus sp. [14]): 16 µg/mL
C[C@@H]([O-])[C@H]1C(=O)N2C(C(=O)[O-])=C(c3ccc4c(c3)c3cc[n+](C)cc3n4C)C[C@H]12.[Na+] | 23 | 21 | 2.5 | 0.035 | 3.8 | 3.6 | 0.01 | 3.8 | 2.5 | 0.38 | 287 | MIC50 (Staphylococcus sp. [15]): 4 µg/mL; MIC90 (Staphylococcus sp. [15]): 4 µg/mL; MIC50 (Staphylococcus aureus [16]): 2 µg/mL; MIC90 (Staphylococcus aureus [16]): 4 µg/mL
C[C@@H]([O-])[C@H]1C(=O)N2C(C(=O)[O-])=C(c3ccc4[nH]c5c[n+](C)ccc5c4c3)C[C@H]12.[Na+] | 28 | 25 | 2.8 | 0.027 | 2.8 | 12 | 0.027 | 9.2 | 7.7 | 0.42 | 166 | MIC50 (Staphylococcus sp. [15]): 4 µg/mL; MIC90 (Staphylococcus sp. [15]): 4 µg/mL; MIC50 (Staphylococcus aureus [13]): 2 µg/mL; MIC90 (Staphylococcus aureus [13]): 4 µg/mL
C[C@@H](O)[C@H]1C(=O)N2C(C(=O)[O-])=C(c3cccc4c3c3cccnc3n4C)C[C@H]12.[Na+] | 13 | 1.2 | 0.08 | 0.009 | 1.4 | 0.38 | 0 | 0.25 | 0.092 | 0.26 | 12 | MIC50 (Staphylococcus aureus [11]): 4 µg/mL; MIC90 (Staphylococcus aureus [11]): 8 µg/mL; MIC50 (Staphylococcus sp. [14]): 8 µg/mL; MIC90 (Staphylococcus sp. [14]): 16 µg/mL
CN[C@H](CC(C)C)C(=O)N[C@H]1C(=O)N[C@@H](CC(N)=O)C(=O)N[C@H]2C(=O)N[C@H]3C(=O)N[C@H](C(=O)N[C@H](C(=O)O)c4cc(O)cc(O)c4-c4cc3ccc4O)[C@H](O)c3ccc(c(Cl)c3)Oc3cc2cc(c3O[C@@H]2O[C@H](CO)[C@@H](O)[C@H](O)[C@H]2O[C@H]2C[C@](C)(N)[C@H](O)[C@H](C)O2)Oc2ccc(cc2Cl)[C@H]1O [VANCOMYCIN] |  |  |  |  |  |  |  |  |  |  |  | MIC90 (Staphylococcus sp. [17]): 4 µg/mL (≈ 2.76 µM); MIC90 (Staphylococcus aureus [18]): 2 µg/mL (≈ 1.38 µM)
C[C@@H]([O-])[C@H]1C(=O)N2C(C(=O)[O-])=C(c3ccc4c(c3)c3c(ccc[n+]3C)n4C)C[C@H]12.[Na+] | 12 | 9.3 | 1.1 | 0.018 | 2.5 | 2.2 | 0 | 1.3 | 1.2 | 0.58 | 27 | MIC50 (Staphylococcus sp. [14]): 8 µg/mL; MIC90 (Staphylococcus sp. [14]): 16 µg/mL; MIC50 (Staphylococcus aureus [16]): 4 µg/mL; MIC90 (Staphylococcus aureus [16]): 8 µg/mL
C[C@@H](O)[C@H]1C(=O)N2C(C(=O)[O-])=C(c3ccc4c5cccnc5n(C)c4c3)C[C@H]12.[Na+] | 4.9 | 0.59 | 0.054 | 0.007 | 1.5 | 0.051 | 0.02 | 0.15 | 0.041 | 0.15 | 4.1 | 
C[C@@H](O)[C@H]1C(=O)N2C(C(=O)[O-])=C(c3ccc4c(c3)c3c[n+](C)ccc3n4C)C[C@H]12 | 14 | 14 | 1.2 | 0.026 | 3.7 | 2.1 | 0.007 | 1.5 | 0.94 | 0.59 | 40 | MIC50 (Staphylococcus sp. [14]): 8 µg/mL (≈ 20.4 µM); MIC90 (Staphylococcus sp. [14]): 16 µg/mL (≈ 40.9 µM); MIC50 (Staphylococcus aureus [16]): 4 µg/mL (≈ 10.2 µM); MIC90 (Staphylococcus aureus [16]): 8 µg/mL (≈ 20.4 µM)
C[C@@H](O)[C@H]1C(=O)N2C(C(=O)O)=C(SCCNC=N)C[C@H]12 [IMIPENEM ANHYDROUS] |  |  |  |  |  |  |  |  |  |  |  | MIC (Serratia [19]): 0.76 µg/mL (≈ 2.54 µM); MIC (Pseudomonas aeruginosa): 0.31 µg/mL (≈ 1.04 µM); MIC (Staphylococcus aureus [20]): 0.009 µg/mL (≈ 0.0301 µM); MIC90 (Staphylococcus sp. [21]): > 128 µg/mL; MIC (Enterococcus sp. [22]): 2.8 µg/mL (≈ 9.35 µM); MIC (Proteus [23]): 0.95 µg/mL (≈ 3.17 µM); MIC (Escherichia coli [24]): 0.68 µg/mL (≈ 2.27 µM); MIC (Enterobacter sp. [25]): 0.49 µg/mL (≈ 1.64 µM); MIC (Klebsiella sp. [26]): 0.59 µg/mL (≈ 1.97 µM); MIC90 (Staphylococcus aureus [27]): > 128 µg/mL; Relative susceptibility (Sus scrofa [28]): 1
C[C@@H]([O-])[C@H]1C(=O)N2C(C(=O)[O-])=C(c3ccc4c(c3)c3ccc[n+](C)c3n4C)C[C@H]12.[Na+] | 30 | 26 | 3 | 0.057 | 3.9 | 4.5 | 0.05 | 4.8 | 2.8 | 0.49 | 313 | MIC50 (Staphylococcus sp. [15]): 4 µg/mL; MIC90 (Staphylococcus sp. [15]): 4 µg/mL; MIC50 (Staphylococcus aureus [29]): 2 µg/mL; MIC90 (Staphylococcus aureus [29]): 4 µg/mL
C[C@@H](O)[C@H]1C(=O)N2C(C(=O)O)=C(c3ccc4c(c3)c3ccncc3n4C)C[C@H]12 |  |  |  |  |  |  | 0.034 |  |  |  |  | 
